Assay [1] concerns the target T1, GDP loaded biotinylated KRas^G12C protein (Homo sapiens, UniProt P01116, G12C).
T1 construct: biotin (biotinylated); made in house
As to the kind of experiment: KRasG12C functional assay. Type of assay: biochemical. The note with it: HTRF FRET readout of SOS-mediated nucleotide exchange and GST-Raf RBD binding, samples incubated for 4 hrs. Put shortly:
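Biotinylated GDP-loaded KRasG12C exchange driven by 0.08 μM SOS with 0.6 μM GTPγS, read by HTRF between europium and XL665 as active KRas binds 20 nM GST-Raf RBD. Buffer: 20 mM HEPES pH 7.5, 5 mM MgCl2, 150 mM NaCl, 0.01% Tween 20. IC50 from normalised FRET dose-response fits.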
On the technique in general: Time-resolved FRET reads energy transfer from a long-lived donor to a nearby acceptor.

Assay [2] deals with T1, GDP loaded biotinylated KRas^G12C protein. The assay is described as follows: KRasG12C mass spectrometry adducting assay. Type of assay: binding. The note with it: test compound final concentration 10 μM, 4 μM KRasG12C, react for 4 hours. Put shortly:
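GDP-loaded biotinylated KRasG12C incubated with compound in 20 mM HEPES pH 7.5, 5 mM MgCl2, 150 mM NaCl, then analysed by LC–QTOF MS.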

The mark [3] stands for this setting: read-out: KRasG12C functional assay IC50 value.

From patent US20220127281A1, “HETEROARYL COMPOUNDS THAT INHIBIT G12C MUTANT RAS PROTEINS” (AstraZeneca AB, priority 2017, published 2022) come the findings set out here.

Where two headings read alike, the source gives them in different places.

In general, IC50 refers to the point on the concentration scale where inhibition reaches its midpoint.

T1 sequence (P01116 1-188 isoform P01116-2 G12C): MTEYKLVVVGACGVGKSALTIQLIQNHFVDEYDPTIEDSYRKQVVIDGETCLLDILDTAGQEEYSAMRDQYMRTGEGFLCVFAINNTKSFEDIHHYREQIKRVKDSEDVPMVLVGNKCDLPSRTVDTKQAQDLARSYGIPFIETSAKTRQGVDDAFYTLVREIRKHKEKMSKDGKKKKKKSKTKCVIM

`C=CC(=O)N1CCN2c3ncnc4cc(-c5cccc6[nH]ccc56)c(Cl)c(c34)OC[C@@H]2C1` [Example 53, 1-[(8aS)-6-Chloro-5-(1H-indol-4-yl)-8a,9,11,12-tetrahydropyrazino[2′,1′:3,4][1,4]oxazepino[5,6,7-de]quinazolin-10(8H)-yl]prop-2-en-1-one]: the IC50 in assay [1] (KRasG12C functional assay IC50 value (μM)) came out at 1.69 µM. Besides, the “KRasG12C M.S. Binding Mean adduct %” value in assay [2] was determined as 74%.
Regarding `C=CC(=O)N1CCN2c3ncnc4cc(-c5ccc(N)cc5C)c(Cl)c(c34)OC[C@@H]2C1` [Example 54, 1-[(8aS)-5-(4-Amino-2-methylphenyl)-6-chloro-8a,9,11,12-tetrahydropyrazino[2′,1′:3,4][1,4]oxazepino[5,6,7-de]quinazolin-10(8H)-yl]prop-2-en-1-one], the IC50 in assay [1] (setting [3]) came out at 2.57 µM. For the same compound, in assay [2], the “KRasG12C M.S. Binding Mean adduct %” value amounted to 60%.
Turning to `C=CC(=O)N1CCN2c3ncnc4cc(-c5cnccc5C)c(Cl)c(c34)OC[C@@H]2C1` [Example 55, 1-[(8aS)-6-Chloro-5-(4-methylpyridin-3-yl)-8a,9,11,12-tetrahydropyrazino[2′,1′:3,4][1,4]oxazepino[5,6,7-de]quinazolin-10(8H)-yl]prop-2-en-1-one], the IC50 in assay [1] (setting [3]) came out at 4.03 µM. In addition, the “KRasG12C M.S. Binding Mean adduct %” value in assay [2] was 26%.
For `C=CC(=O)N1CCN2c3ncnc4cc(-c5ccc(O)c(C#N)c5)c(Cl)c(c34)OC[C@@H]2C1` [Example 56, 5-[(8aS)-10-Acryloyl-6-chloro-8,8a,9,10,11,12-hexahydropyrazino[2′,1′:3,4][1,4]oxazepino[5,6,7-de]quinazolin-5-yl]-2-hydroxybenzonitrile], in that order: 4.39 µM and 0%.
For `C=CC(=O)N1CCN2c3ncnc4cc(-c5cccc6ocnc56)c(Cl)c(c34)OC[C@@H]2C1` [Example 57, 1-[(8aS)-5-(1,3-Benzoxazol-4-yl)-6-chloro-8a,9,11,12-tetrahydropyrazino[2′,1′:3,4][1,4]oxazepino[5,6,7-de]quinazolin-10(8H)-yl]prop-2-en-1-one] the same measures were 2.42 µM and 68%.
For `C=CC(=O)N1CCN2c3ncnc4cc(-c5cccc6ncoc56)c(Cl)c(c34)OC[C@@H]2C1` [Example 58, 1-[(8aS)-5-(1,3-Benzoxazol-7-yl)-6-chloro-8a,9,11,12-tetrahydropyrazino[2′,1′:3,4][1,4]oxazepino[5,6,7-de]quinazolin-10(8H)-yl]prop-2-en-1-one] the same measures were 7.09 µM and 42%.
Consider `C=CC(=O)N1CCN2c3ncnc4cc(-c5cccc(CC#N)c5)c(Cl)c(c34)OC[C@@H]2C1` [Example 59, {3-[(8aS)-10-Acryloyl-6-chloro-8,8a,9,10,11,12-hexahydropyrazino[2′,1′:3,4][1,4]oxazepino[5,6,7-de]quinazolin-5-yl]phenyl}acetonitrile], for which the half-maximal inhibitory concentration (IC50) in assay [1] (setting [3]) amounted to 5.85 µM. The “KRasG12C M.S. Binding Mean adduct %” value in assay [2] worked out at 42%.
For `C=CC(=O)N1CCN2c3ncnc4cc(-c5ccccc5F)c(Cl)c(c34)OC[C@@H]2C1` [Example 60, 1-[(8aS)-6-Chloro-5-(2-fluorophenyl)-8a,9,11,12-tetrahydropyrazino[2′,1′:3,4][1,4]oxazepino[5,6,7-de]quinazolin-10(8H)-yl]prop-2-en-1-one], in that order: 0.437 µM and 100%.
As for `C=CC(=O)N1CCN2c3ncnc4cc(-c5cccc6[nH]ncc56)c(Cl)c(c34)OC[C@@H]2C1` [Example 61, 1-[(8aS)-6-Chloro-5-(1H-indazol-4-yl)-8a,9,11,12-tetrahydropyrazino[2′,1′:3,4][1,4]oxazepino[5,6,7-de]quinazolin-10(8H)-yl]prop-2-en-1-one], in assay [1] (setting [3]), the IC50 stood at 2.22 µM. Moreover, in assay [2], the “KRasG12C M.S. Binding Mean adduct %” value is on record as 64%.
